Reference: paper PMC4349132 (Medchemcomm, 2014)

Tests used:
[1] = Henderson–Hasselbalch equation, assay conditions pH 8
[2] = target: GLP (G9a-like protein, EHMT1) (Homo sapiens, UniProt Q9H9B1); conditions: compared with G9a
[3] = system: all other methyltransferases in the panel; conditions: panel other than G9a, GLP, SETD2, EZH2
EZH2 = EZH2 (Homo sapiens, UniProt Q15910); conditions: at the highest concentrations surveyed (50 μM)
G9a = G9a (Homo sapiens, UniProt Q96KQ7); conditions: SPA assay
SETD2 = SETD2 (Homo sapiens, UniProt Q9BYW2); conditions: at the highest concentrations surveyed (50 μM)

Sequence of GLP (G9a-like protein, EHMT1) (Q9H9B1 whole entry): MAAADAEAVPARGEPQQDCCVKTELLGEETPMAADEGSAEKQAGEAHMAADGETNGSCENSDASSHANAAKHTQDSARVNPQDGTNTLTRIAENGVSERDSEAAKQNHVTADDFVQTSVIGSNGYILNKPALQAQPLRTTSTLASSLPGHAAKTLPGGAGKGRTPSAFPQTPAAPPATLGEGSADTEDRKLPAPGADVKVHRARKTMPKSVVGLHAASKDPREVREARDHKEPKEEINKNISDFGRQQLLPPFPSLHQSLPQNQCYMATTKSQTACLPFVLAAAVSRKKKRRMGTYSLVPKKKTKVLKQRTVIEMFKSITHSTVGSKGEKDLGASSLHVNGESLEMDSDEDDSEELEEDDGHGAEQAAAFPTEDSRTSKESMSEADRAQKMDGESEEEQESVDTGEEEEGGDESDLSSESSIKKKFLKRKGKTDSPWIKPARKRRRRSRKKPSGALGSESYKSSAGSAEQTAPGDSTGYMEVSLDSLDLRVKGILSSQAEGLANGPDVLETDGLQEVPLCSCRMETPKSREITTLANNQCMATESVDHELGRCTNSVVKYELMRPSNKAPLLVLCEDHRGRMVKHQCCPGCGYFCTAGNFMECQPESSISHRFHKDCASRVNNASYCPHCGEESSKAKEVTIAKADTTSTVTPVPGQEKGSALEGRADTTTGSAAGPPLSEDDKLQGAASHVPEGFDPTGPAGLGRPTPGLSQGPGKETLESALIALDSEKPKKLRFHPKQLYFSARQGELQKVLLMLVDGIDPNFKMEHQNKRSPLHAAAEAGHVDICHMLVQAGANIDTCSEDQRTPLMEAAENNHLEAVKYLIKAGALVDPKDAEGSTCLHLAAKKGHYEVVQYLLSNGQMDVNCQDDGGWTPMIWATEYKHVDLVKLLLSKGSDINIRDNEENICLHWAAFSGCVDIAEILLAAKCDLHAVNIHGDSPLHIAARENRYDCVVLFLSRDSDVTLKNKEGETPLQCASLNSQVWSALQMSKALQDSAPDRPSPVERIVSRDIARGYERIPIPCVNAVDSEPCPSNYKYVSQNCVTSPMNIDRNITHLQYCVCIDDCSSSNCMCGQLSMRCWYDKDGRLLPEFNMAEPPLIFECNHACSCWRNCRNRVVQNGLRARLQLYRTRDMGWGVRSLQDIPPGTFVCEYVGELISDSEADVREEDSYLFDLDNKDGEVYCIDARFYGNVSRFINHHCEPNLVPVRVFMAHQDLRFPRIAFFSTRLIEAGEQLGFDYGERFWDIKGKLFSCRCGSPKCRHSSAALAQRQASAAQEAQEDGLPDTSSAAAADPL
Sequence of EZH2 (Q15910 whole entry, species assumed): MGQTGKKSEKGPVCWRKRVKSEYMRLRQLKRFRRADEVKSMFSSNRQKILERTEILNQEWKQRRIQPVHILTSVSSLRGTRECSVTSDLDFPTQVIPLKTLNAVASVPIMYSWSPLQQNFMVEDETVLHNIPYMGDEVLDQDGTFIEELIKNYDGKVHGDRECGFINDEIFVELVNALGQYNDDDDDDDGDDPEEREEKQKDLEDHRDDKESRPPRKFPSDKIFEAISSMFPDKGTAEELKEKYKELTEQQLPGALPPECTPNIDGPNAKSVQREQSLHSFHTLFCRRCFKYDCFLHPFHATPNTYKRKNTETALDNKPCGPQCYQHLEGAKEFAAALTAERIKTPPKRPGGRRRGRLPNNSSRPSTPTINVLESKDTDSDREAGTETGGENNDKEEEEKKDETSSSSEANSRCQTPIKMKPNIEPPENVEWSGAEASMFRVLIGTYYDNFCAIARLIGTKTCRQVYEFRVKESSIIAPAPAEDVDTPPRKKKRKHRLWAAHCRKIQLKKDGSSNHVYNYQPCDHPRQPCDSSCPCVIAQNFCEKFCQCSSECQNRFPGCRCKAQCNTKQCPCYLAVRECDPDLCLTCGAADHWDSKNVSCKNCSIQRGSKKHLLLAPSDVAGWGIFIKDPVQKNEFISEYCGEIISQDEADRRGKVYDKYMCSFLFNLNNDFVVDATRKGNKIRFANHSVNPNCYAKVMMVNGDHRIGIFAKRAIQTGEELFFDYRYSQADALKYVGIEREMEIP
Sequence of EZH2 (O75530 whole entry partner, species assumed): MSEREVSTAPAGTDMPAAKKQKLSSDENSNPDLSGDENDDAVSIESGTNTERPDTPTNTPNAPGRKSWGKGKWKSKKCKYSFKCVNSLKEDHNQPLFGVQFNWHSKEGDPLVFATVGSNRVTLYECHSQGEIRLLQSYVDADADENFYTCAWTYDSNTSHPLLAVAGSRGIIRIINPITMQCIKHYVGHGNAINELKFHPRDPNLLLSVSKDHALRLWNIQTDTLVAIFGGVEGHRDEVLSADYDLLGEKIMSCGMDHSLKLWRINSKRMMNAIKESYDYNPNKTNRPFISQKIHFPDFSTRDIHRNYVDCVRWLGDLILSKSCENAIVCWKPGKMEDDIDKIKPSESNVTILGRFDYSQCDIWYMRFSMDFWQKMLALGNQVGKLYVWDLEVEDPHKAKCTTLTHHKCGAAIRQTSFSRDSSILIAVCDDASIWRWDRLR
Sequence of EZH2 (Q15022 whole entry partner, species assumed): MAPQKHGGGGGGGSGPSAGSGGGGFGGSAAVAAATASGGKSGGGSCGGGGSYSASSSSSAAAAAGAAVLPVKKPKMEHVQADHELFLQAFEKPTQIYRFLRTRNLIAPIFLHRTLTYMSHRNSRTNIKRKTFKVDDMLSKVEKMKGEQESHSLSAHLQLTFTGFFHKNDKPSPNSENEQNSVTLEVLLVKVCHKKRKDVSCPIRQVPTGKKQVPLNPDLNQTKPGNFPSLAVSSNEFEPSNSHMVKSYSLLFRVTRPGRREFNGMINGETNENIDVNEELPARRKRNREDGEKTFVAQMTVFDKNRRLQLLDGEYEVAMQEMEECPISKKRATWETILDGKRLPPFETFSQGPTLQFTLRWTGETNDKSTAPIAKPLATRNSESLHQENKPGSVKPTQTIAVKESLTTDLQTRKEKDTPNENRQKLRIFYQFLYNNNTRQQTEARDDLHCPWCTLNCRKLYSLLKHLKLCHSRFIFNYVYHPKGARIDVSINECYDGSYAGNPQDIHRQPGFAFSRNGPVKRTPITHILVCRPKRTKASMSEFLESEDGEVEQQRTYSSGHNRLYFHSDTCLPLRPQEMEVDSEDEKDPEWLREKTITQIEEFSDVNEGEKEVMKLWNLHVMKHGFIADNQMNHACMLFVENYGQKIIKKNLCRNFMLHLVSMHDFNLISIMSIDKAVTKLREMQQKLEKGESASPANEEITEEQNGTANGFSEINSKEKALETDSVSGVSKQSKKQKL
Sequence of G9a (Q96KQ7 whole entry): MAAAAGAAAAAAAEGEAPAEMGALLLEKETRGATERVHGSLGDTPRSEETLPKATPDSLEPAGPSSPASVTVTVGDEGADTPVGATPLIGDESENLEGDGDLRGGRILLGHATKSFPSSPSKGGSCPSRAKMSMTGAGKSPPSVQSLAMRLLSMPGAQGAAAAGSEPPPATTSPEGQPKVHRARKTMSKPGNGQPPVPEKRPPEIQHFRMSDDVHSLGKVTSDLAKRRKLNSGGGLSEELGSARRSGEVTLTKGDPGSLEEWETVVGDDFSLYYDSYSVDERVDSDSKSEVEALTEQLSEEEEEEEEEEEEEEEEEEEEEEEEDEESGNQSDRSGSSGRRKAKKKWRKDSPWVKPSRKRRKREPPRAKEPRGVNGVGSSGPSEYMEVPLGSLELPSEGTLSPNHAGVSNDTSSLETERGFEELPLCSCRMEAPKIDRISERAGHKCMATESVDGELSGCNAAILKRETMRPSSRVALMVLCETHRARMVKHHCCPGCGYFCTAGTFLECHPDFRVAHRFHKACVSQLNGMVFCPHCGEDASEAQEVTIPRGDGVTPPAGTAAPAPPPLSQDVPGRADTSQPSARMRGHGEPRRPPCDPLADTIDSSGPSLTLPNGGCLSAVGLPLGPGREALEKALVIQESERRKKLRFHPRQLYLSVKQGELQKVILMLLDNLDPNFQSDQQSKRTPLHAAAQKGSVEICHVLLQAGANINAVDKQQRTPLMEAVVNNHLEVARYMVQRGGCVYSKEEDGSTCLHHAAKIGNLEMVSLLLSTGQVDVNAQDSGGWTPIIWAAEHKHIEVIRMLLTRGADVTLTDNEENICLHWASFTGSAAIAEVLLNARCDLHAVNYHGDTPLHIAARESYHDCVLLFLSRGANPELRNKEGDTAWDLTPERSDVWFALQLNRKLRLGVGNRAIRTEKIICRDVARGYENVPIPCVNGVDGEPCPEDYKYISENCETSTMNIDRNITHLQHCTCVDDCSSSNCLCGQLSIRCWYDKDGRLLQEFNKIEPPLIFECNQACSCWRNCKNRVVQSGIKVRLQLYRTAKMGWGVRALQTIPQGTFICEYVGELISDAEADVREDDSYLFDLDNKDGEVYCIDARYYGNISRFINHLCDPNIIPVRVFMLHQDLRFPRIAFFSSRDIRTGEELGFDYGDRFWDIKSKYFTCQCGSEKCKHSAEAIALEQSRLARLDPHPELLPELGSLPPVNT

SMILES	N-1 protonated form [1]	activity against GLP (in words) [2]	activity against all other methyltransferases in the panel (in words) [3]	activity against EZH2 (in words) (EZH2)	G9a inhibitory activity (in words) (G9a)	activity against SETD2 (in words) (SETD2)
COc1cc2nc(N3CCCN(C)CC3)nc(NC3CCN(Cc4ccccc4)CC3)c2cc1OC [Compound 1, BIX-01294, reference compound]	8.0%	dual G9a/GLP activity	–	–	–	–
COc1cc2nc(N3CCCN(C)CC3)cc(NC3CCN(Cc4ccccc4)CC3)c2cc1OC [Compound 41]	96.9%	equipotent against G9a and GLP	inactive	moderate inhibitory activity	significant activity	moderate inhibitory activity
COc1cc2nc(N3CCN(C)CC3)cc(NC3CCN(Cc4ccccc4)CC3)c2cc1OC [Compound 42]	–	equipotent against G9a and GLP	inactive	moderate inhibitory activity	significant activity	moderate inhibitory activity
